Measurements taken from US20240122929A1, “BODY TEMPERATURE LOWERING AGENT, BODY TEMPERATURE ELEVATION SUPPRESSOR, FOOD COMPOSITION FOR LOWERING BODY TEMPERATURE,AND FOOD COMPOSITION FOR SUPPRESSING BODY TEMPERATURE ELEVATION” (University of Tsukuba, priority 2021, published 2024).

Experiments:
male Wistar rat [1] = test: Effect of orotic acid on core body temperature at rest (telemetry, breath gas analysis, spontaneous activity); assay type: in vivo
Description: The body temperature lowering action of the body temperature lowering agent according to the embodiment of the present invention can be measured by a method for measuring the core body temperature at rest. The core body temperature at rest can be measured in accordance with a known method, for example, the method described in an article of Takahashi et al. (Nature 583: 109-114, 2020) and the like. Specifically, the measurement can be performed in the following manner. The core body temperature at rest is measured using a TRM54P Rat Telemetry System (available from KAHA Sciences) and SmartPad (TR181: available from KAHA Sciences) and quantified. The main body of TRM54P Rat Telemetry System is indwelled in the abdominal cavity of a test animal for measurement. All experiments are performed in the light phase, and on the day of the experiments, a rat is fasted 2 hours before start of the test to eliminate the effect of food-induced heat production. After the core body temperature at rest is measured for 20 minutes, a drug (orotic acids) or vehicle is intraperitoneally administered, and the core body temperature is measured for 120 minutes. In a case where the core body temperature at rest is lowered as compared with a case where orotic acids are not administered, it can be determined that the orotic acids have a body temperature lowering action. A 10-week-old male Wistar rat was used, and a one-week preliminary breeding period was provided before the day of an experiment. During the experiment, room temperature was maintained at 22±2° C. After the preliminary breeding, a telemetry (TRM54P, available from KAHA Sciences) for measuring the body temperature was indwelled in the abdominal cavity, and a recovery period and an acclimation period were provided for one week each. 300 mg/kg orotic acid, 30 mg/kg orotic acid, or a vehicle (1% carboxymethyl cellulose) was intraperitoneally administered to examine the effect on the core body temperature at rest. In addition to the core body temperature and a heart rate, an oxygen/carbon dioxide intake was measured using a breath gas analyzer (trade name: Oxymax, available from Columbus Instruments) to calculate a respiratory exchange ratio (also referred to as RER) and an amount of heat production. In addition, the amount of spontaneous activity was measured using an infrared beam sensor (trade name: beam sensor type spontaneous activity amount measuring device, available from Panlab). Note that in the experiment, the rat was placed under fasting for 2 hours before the start of the experiment, and the core body temperature at rest was measured for 20 minutes. Thereafter, the orotic acid or vehicle was intraperitoneally administered, and the measurement was performed until 2 hours later. The orotic acid was used in a free form.

male Wistar rat [2] = test: Effect of orotic acid on core body temperature during treadmill exercise; assay type: in vivo; settings: treadmill 20 m/min for 30 minutes
Description: The body temperature elevation suppressing action of the body temperature elevation suppressor according to the embodiment of the present invention can be measured by a method for measuring the core body temperature during exercise. The core body temperature during exercise can be measured in accordance with a known method, for example, a method described in the article by Takahashi et al. (Nature 583: 109-114, 2020) and the like. Specifically, the measurement can be performed in the following manner. A rat is placed in a treadmill metabolism chamber for small animals having an inclination of 10°, and after measuring the core body temperature at rest for 20 minutes, a single dose of a drug (orotic acids) is administered intraperitoneally. After the administration, the rat is left in a rest state for 15 minutes, and then exercise is started. The exercise is started at a running speed of 5 m/min, the running speed is increased to 20 m/min over 5 minutes, and the core body temperature is measured in the same manner as the method for measuring the core body temperature at rest. In a case where the core body temperature elevation during exercise is suppressed as compared with a case where the orotic acids are not administered, it can be determined that the orotic acids have the body temperature elevation suppressing action. A 10-week-old male Wistar rat was used, and a one-week preliminary breeding period was provided before the day of an experiment. During the experiment, room temperature was maintained at 22±2° C. After the preliminary breeding, a telemetry (trade name: TRM54P, available from KAHA Sciences) for measuring the body temperature was indwelled in the abdominal cavity, and a running test was performed after a recovery period of one week. Note that in the experiment, after 300 mg/kg orotic acid or a vehicle (physiological saline) was intraperitoneally administered in a rest state, treadmill exercise (20 m/min) was performed for 30 minutes, and the measurement was performed until 1 hour after the end of the exercise. The measurement items were core body temperature, a blood pressure, a heart rate, and breath gas metabolism. From the obtained oxygen/carbon dioxide intake, exercise economy was calculated. The orotic acid was used in a free form.

rat = settings: orotic acid administered to a rat, Non-Patent Document 2; cited from earlier work

O=C(O)c1cc(=O)[nH]c(=O)[nH]1 [orotic acid]
amount of spontaneous activity at rest (male Wistar rat [1]; 30 mg/kg and 300 mg/kg intraperitoneal vs vehicle, infrared beam sensor, FIG. 4): no difference between the groups | core body temperature at rest, dose dependence (male Wistar rat [1]; 30 mg/kg and 300 mg/kg intraperitoneal, FIG. 1): decreased in a concentration dependent manner | heart rate at rest (male Wistar rat [1]; 30 mg/kg and 300 mg/kg intraperitoneal, FIG. 2): did not fluctuate | core body temperature at rest (male Wistar rat [1]; 300 mg/kg intraperitoneal, vs vehicle (1% carboxymethyl cellulose), measured until 2 hours after administration, FIG. 1): significantly decreased | amount of heat production at rest (male Wistar rat [1]; 300 mg/kg intraperitoneal, vs vehicle, breath gas analyzer, FIG. 3): significantly decreased | contraction phase, diastole phase and mean blood pressure at rest (male Wistar rat [1]; orotic acid administered groups (30 and 300 mg/kg intraperitoneal), data not shown): significantly increased | exercise economy (male Wistar rat [2]; 300 mg/kg intraperitoneal vs vehicle (physiological saline), FIG. 8): increased | excessive core body temperature elevation during exercise (male Wistar rat [2]; 300 mg/kg intraperitoneal vs vehicle, FIG. 5): suppressed | heart rate during exercise (male Wistar rat [2]; 300 mg/kg intraperitoneal vs vehicle, FIG. 6): significantly decreased | amount of heat production during exercise (male Wistar rat [2]; 300 mg/kg intraperitoneal vs vehicle, FIG. 7): lowered | body temperature (rat): not lowered
